Source: patent US9675590B2, “Methods and pharmaceutical compositions for the treatment of myelodysplastic syndromes” (INSERM (INSTITUT NATIONAL DE LA SANTÉ ET DE LA RECHERCHE …, priority 2014, dated 2017)
Where two headings read alike, the source gives them in different places.

What was measured:
HSP70 [1] = details: erythroid precursor cells; cited from earlier work
HSP70 [2] = assay: HSP70 nuclear retention in CD36+ D6 cells under EPO starvation; assay type: cell-based, human; details: CD36+ D6 from cord blood, after 20 h of treatment
Method: (§1) Umbilical cord blood units from normal full-term deliveries were obtained, after informed mother's consent, from the Obstetrics Unit of Hôpital Necker-Enfants Malades. CD36+ erythroid progenitors, generated from 7 days IL-6+IL3+SCF-cultured CD34 progenitors isolated from cord blood (Miltenyi CD34 Progenitor Cell Isolation Kit), were cultured in the presence of IL3+SCF+Epo in IMDM (Gibco cell culture) supplemented with 15% BIT 9500 (Stem Cell Technologies).
(§2) 5.10^4 cells were spin on slides, acetone fixated, hydrated with cold 1×PBS 1% BSA for 30 minutes, treated with formaldehyde for 15 min (Sigma), then with methanol (Prolabo) for 10 minutes at room temperature. Cells were then permeabilized with 1×PBS 0.2% triton X100 (Sigma) for 10 min at 4° C., washed and incubated in 10% BSA for 30 minutes. They were then sequentially incubated with antibodies diluted in 1×PBS 1% BSA 0.1% tween (Sigma). Nuclei were stained with DAPI and slides were examined with a confocal laser microscope (LSM 700 Carl Zeiss).

CD36+ D6 = assay: Cell death of CD36+ D6 cells during EPO starvation; assay type: cell-based, human; details: EPO starvation during 20 h
Method: as §1

CD36+ D8 cells = assay: Erythroid maturation of CD36+ D8 cells (MGG observations); assay type: cell-based, human; details: 100 nM, 333 nM and 1000 nM, after 72 h of treatment, compared to non treated cells
[3] = tested on: CD36+ erythroid progenitors from cord blood; assay: Toxicity of KPT on CD36+ erythroid progenitors with normal EPO; assay type: cell-based, human; details: cord blood CD36+ at day 6 (D6) of culture; 33 nM, 100 nM, 333 nM and 1000 nM; normal concentrations of EPO; until 20 h of treatment
Method: as §1

HSP70 [4] = assay: HSP70 nuclear localization in myelodysplastic syndrome CD36+ D8 cells; assay type: cell-based, human; details: 100 nM, after 72 h of treatment, compared to non treated cells
Method: as §2

| SMILES | HSP70 nuclear retention (HSP70 [1]) | HSP70 nuclear retention (HSP70 [2]) | decrease of cell death compared to the absence of KPT treatment (CD36+ D6; 100 nM) | decrease of cell death compared to the absence of KPT treatment (CD36+ D6; 333 nM) | maturation index (mature*100/polychromatic) (CD36+ D8 cells) | number of mature cells (CD36+ D8 cells) | toxicity for CD36+ erythroid progenitors [3] | HSP70 nuclear localization (HSP70 [4]) |
| --- | --- | --- | --- | --- | --- | --- | --- | --- |
| CCC(=C/[C@H](C)C/C=C/C(C)=C/[C@@H](C)C(=O)[C@@H](C)[C@H](O)[C@@H](C)C/C(C)=C/C(=O)O)/C=C/[C@@H]1OC(=O)C=C[C@@H]1C [Leptomycin B] | induces HSP70 nuclear retention | – | – | – | – | – | – | – |
| FC(F)(F)c1cc(-c2ncn(/C=C\c3nnco3)n2)cc(C(F)(F)F)c1 [KPT] | – | induces HSP70 nuclear retention | 49% | 39% | increases | increases the number of mature cells | not toxic | induces HSP70 nuclear localization |
